Test results from ChEMBL document CHEMBL5532675, “Discovery of 4-Ethoxy-6-chloro-5-azaindazoles as Novel PDE4 Inhibitors for the Treatment of Alcohol Use Disorder and Alcoholic Liver Diseases” (J Med Chem, 2024).
Active and inactive are the calls of the source. The rule behind the calls is not given here.

Legend:
[1] = biological target: 3',5'-cyclic-AMP phosphodiesterase 4D (Homo sapiens, UniProt Q08499); test: Inhibition of PDE4D7 (unknown origin) using FAM-cyclic-3',5'-AMP as substrate at 100 nM incubated for 1 hrs by fluorescence polarization based IMAP assay relative to control
3',5'-cyclic-AMP phosphodiesterase 4D, sequence (Q08499 whole entry): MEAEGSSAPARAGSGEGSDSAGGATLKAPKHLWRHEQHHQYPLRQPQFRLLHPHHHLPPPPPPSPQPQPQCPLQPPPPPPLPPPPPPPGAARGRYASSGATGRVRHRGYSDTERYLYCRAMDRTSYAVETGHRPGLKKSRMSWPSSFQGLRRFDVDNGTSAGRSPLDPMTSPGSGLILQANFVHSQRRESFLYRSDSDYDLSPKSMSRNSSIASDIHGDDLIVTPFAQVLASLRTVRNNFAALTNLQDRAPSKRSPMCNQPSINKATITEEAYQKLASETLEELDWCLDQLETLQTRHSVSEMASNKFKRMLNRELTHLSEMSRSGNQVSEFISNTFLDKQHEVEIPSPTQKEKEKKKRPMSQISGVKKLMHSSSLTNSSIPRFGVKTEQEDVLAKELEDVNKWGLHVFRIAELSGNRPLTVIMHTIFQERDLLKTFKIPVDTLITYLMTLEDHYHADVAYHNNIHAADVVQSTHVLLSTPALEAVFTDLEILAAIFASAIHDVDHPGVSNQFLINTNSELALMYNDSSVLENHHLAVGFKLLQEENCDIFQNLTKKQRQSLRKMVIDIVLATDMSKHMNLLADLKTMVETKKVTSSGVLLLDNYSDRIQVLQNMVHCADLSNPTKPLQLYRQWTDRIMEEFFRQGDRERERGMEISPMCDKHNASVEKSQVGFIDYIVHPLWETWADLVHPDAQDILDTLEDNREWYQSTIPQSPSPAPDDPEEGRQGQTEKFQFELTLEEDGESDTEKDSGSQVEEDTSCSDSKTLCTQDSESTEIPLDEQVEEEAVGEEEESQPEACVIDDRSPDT

[2] = Chemical stability of compound in aqueous solution at pH <6 measured after 48 hrs; assay type: physicochemical; settings: buffer
[3] = Chemical stability of compound in aqueous solution at pH >10 measured after 48 hrs; assay type: physicochemical; settings: buffer
[4] = Acute toxicity in C57BL/6J mouse assessed as poisoning symptoms at 1 g/Kg, po administered for 14 days; assay type: organism-based; settings: in vivo, 1000 mg/kg, 336 h, time 14 day
[5] = Selectivity ratio for inhibition of PDE9A (unknown origin) using FAM-cyclic-3',5'-AMP as substrate to inhibition of PDE4B1 (unknown origin) using FAM-cyclic-3',5'-AMP as substrate
[6] = Selectivity ratio for inhibition of PDE8A1 (unknown origin) using FAM-cyclic-3',5'-AMP as substrate to inhibition of PDE4B1 (unknown origin) using FAM-cyclic-3',5'-AMP as substrate
[7] = biological target: High affinity cAMP-specific and IBMX-insensitive 3',5'-cyclic phosphodiesterase 8A (Homo sapiens) (UniProt O60658); test: Inhibition of PDE8A1 (unknown origin) using FAM-cyclic-3',5'-AMP as substrate at 10 uM incubated for 1 hrs by fluorescence polarization based IMAP assay relative to control
High affinity cAMP-specific and IBMX-insensitive 3',5'-cyclic phosphodiesterase 8A (Homo sapiens), sequence (O60658 whole entry): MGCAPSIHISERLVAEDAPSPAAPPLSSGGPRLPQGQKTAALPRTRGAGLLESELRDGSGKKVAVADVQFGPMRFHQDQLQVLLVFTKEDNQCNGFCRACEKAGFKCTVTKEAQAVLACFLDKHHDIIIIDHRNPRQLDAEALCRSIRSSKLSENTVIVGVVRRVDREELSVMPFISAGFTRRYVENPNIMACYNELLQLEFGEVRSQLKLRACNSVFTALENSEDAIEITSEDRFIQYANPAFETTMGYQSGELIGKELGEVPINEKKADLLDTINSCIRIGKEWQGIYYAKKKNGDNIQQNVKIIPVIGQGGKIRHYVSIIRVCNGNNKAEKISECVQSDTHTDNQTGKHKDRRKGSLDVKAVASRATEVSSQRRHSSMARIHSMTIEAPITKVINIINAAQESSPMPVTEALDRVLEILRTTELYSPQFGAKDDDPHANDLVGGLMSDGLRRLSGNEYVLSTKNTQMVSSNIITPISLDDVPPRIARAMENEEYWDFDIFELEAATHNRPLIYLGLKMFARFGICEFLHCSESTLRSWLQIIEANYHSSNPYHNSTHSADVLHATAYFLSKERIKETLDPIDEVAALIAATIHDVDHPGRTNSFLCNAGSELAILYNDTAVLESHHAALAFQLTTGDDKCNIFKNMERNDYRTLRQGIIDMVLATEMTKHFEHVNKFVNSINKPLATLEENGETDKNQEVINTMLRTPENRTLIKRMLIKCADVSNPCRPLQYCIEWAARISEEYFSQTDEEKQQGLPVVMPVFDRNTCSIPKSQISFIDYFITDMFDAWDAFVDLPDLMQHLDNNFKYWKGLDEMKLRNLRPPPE

[8] = biological target: High affinity cGMP-specific 3',5'-cyclic phosphodiesterase 9A (Homo sapiens) (UniProt O76083); test: Inhibition of PDE9A (unknown origin) using FAM-cyclic-3',5'-AMP as substrate at 10 uM incubated for 1 hrs by fluorescence polarization based IMAP assay relative to control
High affinity cGMP-specific 3',5'-cyclic phosphodiesterase 9A (Homo sapiens), sequence (O76083 whole entry): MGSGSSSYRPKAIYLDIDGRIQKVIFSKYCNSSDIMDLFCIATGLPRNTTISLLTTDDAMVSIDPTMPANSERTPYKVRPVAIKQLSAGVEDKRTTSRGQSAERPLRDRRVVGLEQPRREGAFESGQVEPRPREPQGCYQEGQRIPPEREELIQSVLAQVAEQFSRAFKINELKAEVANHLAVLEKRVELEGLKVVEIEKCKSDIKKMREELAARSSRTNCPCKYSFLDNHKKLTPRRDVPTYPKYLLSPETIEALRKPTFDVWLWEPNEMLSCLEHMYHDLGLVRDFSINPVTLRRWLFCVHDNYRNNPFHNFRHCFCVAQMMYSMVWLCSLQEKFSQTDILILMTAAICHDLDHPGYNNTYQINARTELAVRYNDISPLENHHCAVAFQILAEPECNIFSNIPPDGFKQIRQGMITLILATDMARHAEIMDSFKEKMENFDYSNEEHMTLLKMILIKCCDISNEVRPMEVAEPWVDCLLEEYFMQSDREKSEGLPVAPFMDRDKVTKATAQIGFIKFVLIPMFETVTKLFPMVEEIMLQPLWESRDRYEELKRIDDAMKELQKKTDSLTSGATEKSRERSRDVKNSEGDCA

[9] = Selectivity ratio for inhibition of PDE3B (unknown origin) using FAM-cyclic-3',5'-AMP as substrate to inhibition of PDE4D7 (unknown origin) using FAM-cyclic-3',5'-AMP as substrate
[10] = Selectivity ratio for inhibition of PDE7A (unknown origin) using FAM-cyclic-3',5'-AMP as substrate to inhibition of PDE4D7 (unknown origin) using FAM-cyclic-3',5'-AMP as substrate
[11] = Selectivity ratio for inhibition of PDE8A1 (unknown origin) using FAM-cyclic-3',5'-AMP as substrate to inhibition of PDE4D7 (unknown origin) using FAM-cyclic-3',5'-AMP as substrate
[12] = Selectivity ratio for inhibition of PDE3B (unknown origin) using FAM-cyclic-3',5'-AMP as substrate to inhibition of PDE4B1 (unknown origin) using FAM-cyclic-3',5'-AMP as substrate
[13] = Acute toxicity in C57BL/6J mouse assessed as druggability at 1 g/Kg, po administered for 14 days; assay type: organism-based; settings: in vivo, 1000 mg/kg, 336 h, time 14 day
[14] = Drug concentration in Sprague-Dawley rat plasma at 10 mg/kg, po administered as single dose for 1 hrs by LC-MS analysis; assay type: ADME, organism-based
[15] = Drug concentration in Sprague-Dawley rat plasma at 10 mg/kg, po administered as single dose for 2 hrs by LC-MS analysis; assay type: ADME, organism-based
[16] = Drug concentration in Sprague-Dawley rat brain at 10 mg/kg, po administered as single dose for 2 hrs by LC-MS analysis; assay type: ADME, organism-based; settings: read-out: Ct
[17] = Cmax in Sprague-Dawley rat at 2 mg/kg, iv measured after 24 hrs by LC-MS analysis; assay type: ADME, organism-based; settings: in vivo
[18] = AUC (0 to t) in Sprague-Dawley rat at 2 mg/kg, iv measured after 24 hrs by LC-MS analysis; assay type: ADME, organism-based; settings: in vivo
[19] = AUC (0 to infinity) in Sprague-Dawley rat at 2 mg/kg, iv measured after 24 hrs by LC-MS analysis; assay type: ADME, organism-based; settings: in vivo
[20] = Tmax in Sprague-Dawley rat at 10 mg/kg, po measured after 24 hrs by LC-MS analysis; assay type: ADME, organism-based; settings: in vivo
[21] = AUC (0 to t) in Sprague-Dawley rat at 10 mg/kg, po measured after 24 hrs by LC-MS analysis; assay type: ADME, organism-based; settings: in vivo
[22] = AUC (0 to infinity) in Sprague-Dawley rat at 10 mg/kg, po measured after 24 hrs by LC-MS analysis; assay type: ADME, organism-based; settings: in vivo
[23] = Oral bioavailability in Sprague-Dawley rat at 10 mg/kg measured after 24 hrs by LC-MS analysis; assay type: ADME, organism-based; settings: in vivo
Mus musculus [24] = test: Protection against alcohol use disorder in C57BL/6J mouse model assessed as decrease in alcohol intake at 1 to 2.5 mg/kg, po pre-trained with alcohol and water for 42 days with subsequent compound addition on day 22 and measured after 3 weeks by two-bottle choice test; assay type: functional, organism-based; settings: dose 1-2.5 mg/kg
Mus musculus [25] = test: (§1) Protection against alcohol use disorder in C57BL/6J mouse model assessed as decrease in alcohol intake at 1 to 2.5 mg/kg, po pre-trained with alcohol and water for 42 days with subsequent compound addition from day 22 to day 42 followed by 3.5 hrs of darkness and compound administration for 30 mins followed by water replacement with alcohol for 4 hrs on day 46 by Drink-in-Dark test; assay type: functional, organism-based; settings: dose 1-2.5 mg/kg, time 23.0 day
Mus musculus [26] = test: as §1, with “exposure-induced anxiety like behavior” for “use disorder”, “increase” for “decrease”, “center time” for “alcohol intake”, “and measured 24 hrs after alcohol withdrawal” for “on day 46”, “open field” for “Drink-in-Dark”; assay type: functional, organism-based; settings: dose 1-2.5 mg/kg, time 24.0 day
Mus musculus [27] = test: Protection against alcohol-induced sedation in C57BL/6J mouse model assessed as reduction in sleep time at 1 to 2.5 mg/kg, po preadministered with compound every 24 hrs for 3 times followed by alcohol administration 30 mins post last dose; assay type: functional, organism-based; settings: dose 1-2.5 mg/kg, time 72.5 hrs
Mus musculus [28] = test: (§2) Protection against alcohol-induced motor impairment in C57BL/6J mouse model assessed as short recovery time by measuring latency to falling off at 1 mg/kg, po preadministered with compound every 24 hrs for 3 times followed by alcohol administration 30 mins post last dose and further treated with compound for 3 days followed by alcohol administration 30 mins post last dose and measured at 2 to 20 mins by rotarod test; assay type: functional, organism-based; settings: time 8702-8720 min
Mus musculus [29] = test: as §2, with “2.5” for “1”; assay type: functional, organism-based; settings: time 8702-8720 min
Mus musculus [30] = test: as §2, with “decrease in resting” for “short recovery”, “time” for “time by measuring latency to falling off”, “1 to 2.5” for “1”, “open field” for “rotarod”; assay type: functional, organism-based; settings: dose 1-2.5 mg/kg, time 8702-8720 min
Mus musculus [31] = test: (§3) Protection against alcoholic liver disease in NIAAA C57BL/6J mouse model assessed as improvement of steatosis at 1 to 2.5 mg/kg, po preadministered with 1 to 4 % of alcohol for 10 days with subsequent compound addition from day 6 to 11 and further administered with 31.25 % alcohol on day 11 and measured after 9 hrs by Oil Red O staining based light microscopic analysis; assay type: functional, organism-based; settings: dose 1-2.5 mg/kg, time 5.0 day
Mus musculus [32] = test: as §3, with “reduction in serum IL1-beta level” for “improvement of steatosis”, “ELISA” for “Oil Red O staining based light microscopic analysis”; assay type: functional, organism-based; settings: dose 1-2.5 mg/kg, time 5.0 day
Mus musculus [33] = test: as §3, with “reduction in liver TNF-alpha mRNA level” for “improvement of steatosis”, “RT-qPCR” for “Oil Red O staining based light microscopic”; assay type: functional, organism-based; settings: dose 1-2.5 mg/kg, time 5.0 day

For `CCOc1nc(Cl)cc2c1cnn2CCCC(=O)O`, the inhibition [1] was 72%, the Stability [2] was “Stable” and the Stability [3] was “Stable”. For the same molecule, the Activity [4] was “Non-Toxic”, the Selectivity ratio [5] was > 267 and the Selectivity ratio [6] was > 267. The inhibition [7] was 9%, the inhibition [8] was 9% and the Selectivity ratio [9] was > 267. The Selectivity ratio [10] was > 267, the Selectivity ratio [11] was > 267 and the Selectivity ratio [12] was > 267. The Activity [13] was “Non-Toxic”, the concentration at 1 h [14] was 19500 ng/mL and the concentration at 2 h [15] was 27000 ng/mL. For the same molecule, the concentration at 2 h [16] was 441 ng/g, the Cmax [17] was 23200 ng/mL and the AUC(0-t) at 24 h [18] was 142 µg·h/mL. It also gave an AUC(0-inf) [19] of 143 µg·h/mL, a Tmax [20] of 4 h and an AUC(0-t) at 24 h [21] of 669 µg·h/mL. For the same molecule, the AUC(0-inf) [22] was 828 µg·h/mL, the bioavailability [23] was 94.1% and the Activity (Mus musculus [24]) was “Active”. The Activity (Mus musculus [25]) was “Active”, the Activity (Mus musculus [26]) was “Active” and the Activity (Mus musculus [27]) was “Active”. For the same molecule, the Activity (Mus musculus [28]) was “inactive”, the Activity (Mus musculus [29]) was “Active” and the Activity (Mus musculus [30]) was “Active”. For the same molecule, the Activity (Mus musculus [31]) was “Active”, the Activity (Mus musculus [32]) was “Active” and the Activity (Mus musculus [33]) was “Active”.
